# Tests used:
# MLKL [1] = target: T1, MLKL (Homo sapiens, UniProt Q8NB16); test: MLKL degradation assay in HepG2 cell line (western blot); assay type: cell-based; design: endogenous in cells; host or cells: HepG2 or HaCaT; conditions: cell line not given; for Degradation assay (Degradation %) 1 μM: compound 1 μM; for Degradation assay (Degradation %) 10 μM: compound 10 μM
# T1 sequence (Q8NB16 1-471): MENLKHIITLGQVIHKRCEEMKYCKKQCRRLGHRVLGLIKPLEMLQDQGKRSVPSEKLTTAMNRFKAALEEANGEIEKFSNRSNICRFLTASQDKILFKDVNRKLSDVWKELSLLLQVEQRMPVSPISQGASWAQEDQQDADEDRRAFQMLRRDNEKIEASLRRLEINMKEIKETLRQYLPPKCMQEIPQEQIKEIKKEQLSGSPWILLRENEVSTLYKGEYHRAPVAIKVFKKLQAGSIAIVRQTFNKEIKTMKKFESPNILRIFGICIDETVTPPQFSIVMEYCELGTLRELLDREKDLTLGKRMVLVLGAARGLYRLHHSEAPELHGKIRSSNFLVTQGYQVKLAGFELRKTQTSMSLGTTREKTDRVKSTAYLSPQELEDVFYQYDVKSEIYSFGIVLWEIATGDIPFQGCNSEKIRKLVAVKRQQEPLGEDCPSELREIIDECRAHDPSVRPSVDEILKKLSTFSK
# Method in brief: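 HepG2 cells were treated 20-24 h at 37 °C with compound at 1 or 10 μM final. RIPA lysates were normalized by BCA, and 10-15 μg protein per lane was resolved by SDS-PAGE. MLKL was detected by western blot with chemiluminescence.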
# MLKL [2] = target: T1, MLKL; test: Measurement of binding affinity with MLKL receptor (competitive binding assay, Kd); design: made in house; host or cells: HEK 293 cell line (T7 phage in E. coli BL21-derived host is also described)
# Method in brief: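 Kd comes from a bead-based competition format: compound-dependent loss of DNA-tagged, HEK 293-expressed MLKL capture, measured as eluate kinase by qPCR. Final DMSO is 0.9%.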
# FADD−/− Jurkat cells = test: Necroptosis inhibition assay, TNF-α-induced necroptosis (CellTiter-Glo 2.0); assay type: cell-based, human; conditions: TNF-α 15 ng/mL; for Necroptosis inhibition assay (Rescue %) 1 μM: compound 1 μM; for Necroptosis inhibition assay (Rescue %) 10 μM: compound 10 μM
# Method in brief: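 FADD−/− Jurkat cells preincubated 30 min at room temperature with compound at 0.1, 1 and 10 μM final, then stimulated with TNF-α (15 ng/mL final) for 20–24 h at 37 °C, 5% CO2. Viability read as ATP luminescence; cytotoxicity and necroptosis inhibition rate calculated from luminescence values.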
SMILES,Degradation assay (Degradation %) 1 μM (MLKL [1]),Degradation assay (Degradation %) 10 μM (MLKL [1]),Kd (MLKL [2]),Necroptosis inhibition assay (Rescue %) 1 μM (FADD−/− Jurkat cells; FADD−/− Jurkat cells),Necroptosis inhibition assay (Rescue %) 10 μM (FADD−/− Jurkat cells; FADD−/− Jurkat cells),Necroptosis inhibition assay (Rescue %) 1 μM (FADD−/− Jurkat cells),Necroptosis inhibition assay (Rescue %) 10 μM (FADD−/− Jurkat cells)
"Nc1ncc(-c2cnn(C3CCN(CCCN4CCN(CC5CCN(C(=O)CNc6ccc7c(c6)C(=O)N(C6CCC(=O)NC6=O)C7=O)CC5)CC4)CC3)c2)nc1C(=O)O[C@@H](C(=O)Nc1ccc(F)cc1)c1ccccc1 (stereo partly drawn) [TDH-441, (R)-2-((4-fluorophenyl)amino)-2-oxo-1-phenylethyl 3-amino-6-(1-(1-(3-(4-((1-((2-(2,6-dioxopiperidin-3-yl)-1,3-dioxoisoindolin-5-yl)glycyl)piperidin-4-yl)methyl)piperazin-1-yl)propyl)piperidin-4-yl)-1H-pyrazol-4-yl)pyrazine-2-carboxylate]",87.59%,87.7%,0.69 nM,71.58%,−15.73%,,
"Nc1ncc(-c2cnn(C3CCN(CC4CCN(CC5CCN(c6ccc7c(c6)C(=O)N(C6CCC(=O)NC6=O)C7=O)CC5)CC4)CC3)c2)nc1C(=O)O[C@@H](C(=O)Nc1ccc(F)cc1)c1ccccc1 (stereo partly drawn) [TDH-473, (R)-2-((4-fluorophenyl)amino)-2-oxo-1-phenylethyl 3-amino-6-(1-(1-((1-((1-(2-(2,6-dioxopiperidin-3-yl)-1,3-dioxoisoindolin-5-yl)piperidin-4-yl)methyl)piperidin-4-yl)methyl)piperidin-4-yl)-1H-pyrazol-4-yl)pyrazine-2-carboxylate]",63.51%,73.71%,1.7 nM,28.37%,−13.59%,,
"Nc1ncc(-c2cnn(C3CCN(CCC4CCN(C(=O)c5ccc6c(N7CCC(=O)NC7=O)coc6c5)CC4)CC3)c2)nc1C(=O)O[C@@H](C(=O)Nc1ccc(F)cc1)c1ccccc1 [TDH-552, (R)-2-((4-fluorophenyl)amino)-2-oxo-1-phenylethyl 3-amino-6-(1-(1-(2-(1-(3-(2,4-dioxotetrahydropyrimidin-1(2H)-yl)benzofuran-6-carbonyl)piperidin-4-yl)ethyl)piperidin-4-yl)-1H-pyrazol-4-yl)pyrazine-2-carboxylate]",92.21%,75.10%,0.41 nM,31.97%,6.25%,,
"Nc1ncc(-c2cnn(C3CCN(CCOC4CCN(C(=O)CCc5ccc6c(c5)C(=O)N(C5CCC(=O)NC5=O)C6=O)CC4)CC3)c2)nc1C(=O)O[C@@H](C(=O)Nc1ccc(F)cc1)c1ccccc1 (stereo partly drawn) [TDH-379, (R)-2-((4-fluorophenyl)amino)-2-oxo-1-phenylethyl 3-amino-6-(1-(1-(2-((1-(3-(2-(2,6-dioxopiperidin-3-yl)-1,3-dioxoisoindolin-5-yl)propanoyl)piperidin-4-yl)oxy)ethyl)piperidin-4-yl)-1H-pyrazol-4-yl)pyrazine-2-carboxylate]",69.78%,88.75%,2.9 nM,,,36.70%,28.98%
"Nc1ncc(-c2cnn(C3CCN(CC4CCN(C(=O)C5CN(c6ccc7nnn(C8CCC(=O)NC8=O)c(=O)c7c6)C5)CC4)CC3)c2)nc1C(=O)O[C@@H](C(=O)Nc1ccc(F)cc1)c1ccccc1 (stereo partly drawn) [TDH-170, (R)-2-((4-fluorophenyl)amino)-2-oxo-1-phenylethyl 3-amino-6-(1-(1-((1-(1-(3-(2,6-dioxopiperidin-3-yl)-4-oxo-3,4-dihydrobenzo[d][1,2,3]triazin-6-yl)azetidine-3-carbonyl)piperidin-4-yl)methyl)piperidin-4-yl)-1H-pyrazol-4-yl)pyrazine-2-carboxylate]",60.57%,58.27%,4.6 nM,,,44.08%,23.26%
"Nc1ncc(-c2cnn(C3CCN(CCOCCOCCOCCNC(=O)C4CN(c5ccc6c(c5)C(=O)N(C5CCC(=O)NC5=O)C6=O)C4)CC3)c2)nc1C(=O)O[C@@H](C(=O)Nc1ccc(F)cc1)c1ccccc1 (stereo partly drawn) [TDH-142, (R)-2-((4-fluorophenyl)amino)-2-oxo-1-phenylethyl 3-amino-6-(1-(1-(1-(1-(2-(2,6-dioxopiperidin-3-yl)-1,3-dioxoisoindolin-5-yl)azetidin-3-yl)-1-oxo-5,8,11-trioxa-2-azatridecan-13-yl)piperidin-4-yl)-1H-pyrazol-4-yl)pyrazine-2-carboxylate]",19.42%,53.09%,4.4 nM,,,12.69%,50.51%
"Nc1ncc(-c2ccc(N3CCN(CC4CCN(C(=O)COc5ccc6c(c5)C(=O)N(C5CCC(=O)NC5=O)C6=O)CC4)CC3)nc2)nc1C(=O)OC(C(=O)Nc1ccc(F)cc1)c1ccccc1 (stereo not shown) [TDH-256, 2-((4-fluorophenyl)amino)-2-oxo-1-phenylethyl 3-amino-6-(6-(4-((1-(2-((2-(2,6-dioxopiperidin-3-yl)-1,3-dioxoisoindolin-5-yl)oxy)acetyl)piperidin-4-yl)methyl)piperazin-1-yl)pyridin-3-yl)pyrazine-2-carboxylate]",36.84%,24.99%,78 nM,,,45.87%,44.55%
"Nc1ncc(-c2cnn([C@@H]3CCN(CCOCCOCCNC(=O)CNc4ccc5c(c4)C(=O)N(C4CCC(=O)NC4=O)C5=O)C3)c2)nc1C(=O)OC(C(=O)Nc1ccc(F)cc1)c1ccccc1 (stereo partly drawn) [TDH-268, 2-((4-fluorophenyl)amino)-2-oxo-1-phenylethyl 3-amino-6-(1-((3R)-1-(2-(2-(2-(2-((2-(2,6-dioxopiperidin-3-yl)-1,3-dioxoisoindolin-5-yl)amino)acetamido)ethoxy)ethoxy)ethyl)pyrrolidin-3-yl)-1H-pyrazol-4-yl)pyrazine-2-carboxylate]",7.05%,35.64%,6.9 nM,,,21.45%,51.22%
